# Laboratory results published in patent US10487068B2, “Pyridazine derivatives as RORc modulators” (Genentech, Inc., priority 2015, dated 2019).
# Target: T1, RORc ligand binding domain (Homo sapiens, UniProt P51449)
# T1 sequence (P51449 269-508 limits assumed): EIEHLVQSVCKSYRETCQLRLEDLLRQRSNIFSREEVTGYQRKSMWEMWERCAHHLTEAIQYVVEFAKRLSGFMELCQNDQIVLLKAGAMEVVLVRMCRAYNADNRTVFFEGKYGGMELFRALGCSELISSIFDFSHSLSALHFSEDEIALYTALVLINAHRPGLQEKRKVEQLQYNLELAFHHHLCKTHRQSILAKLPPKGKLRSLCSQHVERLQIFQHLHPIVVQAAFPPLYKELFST
# Experiment: In Vitro RORc Ligand Binding Assay
# Settings: RORc IC50, radioligand 25-[3H]hydroxycholesterol 6 nM; 0.6 ug/mL RORc receptor; 3 h at 25° C.
row,Compound,IC50 [nM]
1,"CC1(C)[C@@H]2CC[C@@]1(c1cncc(C(N)=O)n1)c1nnc(-c3c(F)cccc3F)cc12 [Example 58, 6-((5S,8R)-3-(2,6-difluorophenyl)-9,9-dimethyl-5,6,7,8-tetrahydro-5,8-methanocinnolin-8-yl)pyrazine-2-carboxamide]",31.4
2,"CC1(C)[C@@H]2CC[C@@]1(c1cccc(C#N)n1)c1nnc(-c3c(F)cccc3F)cc12 [Example 59, 6-((5S,8R)-3-(2,6-difluorophenyl)-9,9-dimethyl-5,6,7,8-tetrahydro-5,8-methanocinnolin-8-yl)picolinonitrile]",15.9
3,"CC1(C)[C@H]2CC[C@]1(c1cccc(C(=O)NC3COC3)n1)c1nnc(-c3c(F)cccc3F)cc12 [Example 60, 6-((5R,8S)-3-(2,6-difluorophenyl)-9,9-dimethyl-5,6,7,8-tetrahydro-5,8-methanocinnolin-8-yl)-N-(oxetan-3-yl)picolinamide]",13.6
4,"C[C@H](O)CNC(=O)c1cccc([C@@]23CC[C@@H](c4cc(-c5c(F)cccc5F)nnc42)C3(C)C)n1 [Example 61, 6-((5R,8S)-3-(2,6-difluorophenyl)-9,9-dimethyl-5,6,7,8-tetrahydro-5,8-methanocinnolin-8-yl)-N-((S)-2-hydroxypropyl)picolinamide]",34.8
5,"C[C@@H](O)CNC(=O)c1cccc([C@@]23CC[C@@H](c4cc(-c5c(F)cccc5F)nnc42)C3(C)C)n1 [Example 62, 6-((5R,8S)-3-(2,6-difluorophenyl)-9,9-dimethyl-5,6,7,8-tetrahydro-5,8-methanocinnolin-8-yl)-N-((R)-2-hydroxypropyl)picolinamide]",28.8
6,"CC(C)(O)CNC(=O)c1cccc([C@@]23CC[C@@H](c4cc(-c5c(F)cccc5F)nnc42)C3(C)C)n1 [Example 63, 6-((5R,8S)-3-(2,6-difluorophenyl)-9,9-dimethyl-5,6,7,8-tetrahydro-5,8-methanocinnolin-8-yl)-N-(2-hydroxy-2-methylpropyl)picolinamide]",53.1
7,CC1(C)[C@H]2CC[C@]1(c1cc(C(=O)NCCO)ccn1)c1nnc(-c3c(F)cccc3F)cc12 [Example 64],95.4
8,CC1(C)[C@H]2CC[C@]1(c1cc(C(=O)NC3COC3)ccn1)c1nnc(-c3c(F)cccc3F)cc12 [Example 65],104
9,Cc1nnc(-c2ccnc([C@@]34CC[C@@H](c5cc(-c6c(F)cccc6F)nnc53)C4(C)C)c2)o1 [Example 66],161
10,C[C@H](CO)NC(=O)c1ccnc([C@@]23CC[C@@H](c4cc(-c5c(F)cccc5F)nnc42)C3(C)C)c1 [Example 67],276
11,C[C@@H](CO)NC(=O)c1ccnc([C@@]23CC[C@@H](c4cc(-c5c(F)cccc5F)nnc42)C3(C)C)c1 [Example 68],553
12,CC1(C)[C@H]2CC[C@]1(c1cc(C(N)=O)ccn1)c1nnc(-c3c(F)cccc3F)cc12 [Example 69],26.4
13,CNC(=O)c1ccnc([C@@]23CC[C@@H](c4cc(-c5c(F)cccc5F)nnc42)C3(C)C)c1 [Example 70],50
14,CC1(C)[C@H]2CC[C@]1(c1cc(N)ccn1)c1nnc(-c3c(F)cccc3F)cc12 [Example 71],1510
15,"CC1(C)[C@H]2CC[C@]1(c1cccc(N)n1)c1nnc(-c3c(F)cccc3F)cc12 [Example 72, 6-((5R,8S)-3-(2,6-difluorophenyl)-9,9-dimethyl-5,6,7,8-tetrahydro-5,8-methanocinnolin-8-yl)pyridin-2-amine]",2.6
16,"CC1(C)[C@@H]2CC[C@@]1(c1cncc(C(=O)NCCO)n1)c1nnc(-c3c(F)cccc3F)cc12 [Example 73, 6-((5S,8R)-3-(2,6-difluorophenyl)-9,9-dimethyl-5,6,7,8-tetrahydro-5,8-methanocinnolin-8-yl)-N-(2-hydroxyethyl)pyrazine-2-carboxamide]",32.4
17,CC(=O)Nc1ccnc([C@@]23CC[C@@H](c4cc(-c5c(F)cccc5F)nnc42)C3(C)C)c1 [Example 74],118
18,CC1(C)[C@H]2CC[C@]1(c1cc(-c3nnc(CO)o3)ccn1)c1nnc(-c3c(F)cccc3F)cc12 [Example 75],167
19,CN(C)C(=O)c1ccnc([C@@]23CC[C@@H](c4cc(-c5c(F)cccc5F)nnc42)C3(C)C)c1 [Example 76],1470

row,Compound,IC50 [nM]
1,CC(C)(O)CNC(=O)c1ccnc([C@@]23CC[C@@H](c4cc(-c5c(F)cccc5F)nnc42)C3(C)C)c1 [Example 77],139
2,CC1(C)[C@H]2CC[C@]1(c1cc(NS(C)(=O)=O)ccn1)c1nnc(-c3c(F)cccc3F)cc12 [Example 78],1190
3,CC1(C)[C@H]2CC[C@]1(c1cc(CO)ccn1)c1nnc(-c3c(F)cccc3F)cc12 [Example 79],47.3
4,"CC1(C)[C@H]2CC[C@]1(c1cccc(NS(C)(=O)=O)n1)c1nnc(-c3c(F)cccc3F)cc12 [Example 80, N-(6-((5R,8S)-3-(2,6-difluorophenyl)-9,9-dimethyl-5,6,7,8-tetrahydro-5,8-methanocinnolin-8-yl)pyridin-2-yl)methanesulfonamide]",11.2
5,CC1(C)[C@H]2CC[C@]1(c1ccnc(C(=O)NCCO)n1)c1nnc(-c3c(F)cccc3F)cc12 [Example 81],52.8
6,"CC1(C)[C@@H]2CC[C@@]1(c1cncc(C(=O)NC3COC3)n1)c1nnc(-c3c(F)cccc3F)cc12 [Example 82, 6-((5S,8R)-3-(2,6-difluorophenyl)-9,9-dimethyl-5,6,7,8-tetrahydro-5,8-methanocinnolin-8-yl)-N-(oxetan-3-yl)pyrazine-2-carboxamide]",129
7,"CC1(C)[C@H]2CC[C@]1(c1cccc(C(=O)NCCS(C)(=O)=O)n1)c1nnc(-c3c(F)cccc3F)cc12 [Example 83, 6-((5R,8S)-3-(2,6-difluorophenyl)-9,9-dimethyl-5,6,7,8-tetrahydro-5,8-methanocinnolin-8-yl)-N-(2-(methylsulfonyl)ethyl)picolinamide]",13.3
8,"CC1(C)[C@H]2CC[C@]1(c1cncc(-c3nnc(CO)o3)n1)c1nnc(-c3c(F)cccc3F)cc12 [Example 84, (5-(6-((5R,8S)-3-(2,6-difluorophenyl)-9,9-dimethyl-5,6,7,8-tetrahydro-5,8-methanocinnolin-8-yl)pyrazin-2-yl)-1,3,4-oxadiazol-2-yl)methanol]",26.3
9,"CC1(C)[C@H]2CC[C@]1(c1cncc(C(=O)NCCCO)n1)c1nnc(-c3c(F)cccc3F)cc12 [Example 85, 6-((5R,8S)-3-(2,6-difluorophenyl)-9,9-dimethyl-5,6,7,8-tetrahydro-5,8-methanocinnolin-8-yl)-N-(3-hydroxypropyl)pyrazine-2-carboxamide]",30.6
10,"CC(C)(O)CNC(=O)c1cncc([C@@]23CC[C@@H](c4cc(-c5c(F)cccc5F)nnc42)C3(C)C)n1 [Example 86, 6-((5R,8S)-3-(2,6-difluorophenyl)-9,9-dimethyl-5,6,7,8-tetrahydro-5,8-methanocinnolin-8-yl)-N-(2-hydroxy-2-methylpropyl)pyrazine-2-carboxamide]",45
11,"CC1(C)[C@H]2CC[C@]1(c1cncc(CO)n1)c1nnc(-c3c(F)cccc3F)cc12 [Example 87, (6-((5R,8S)-3-(2,6-difluorophenyl)-9,9-dimethyl-5,6,7,8-tetrahydro-5,8-methanocinnolin-8-yl)pyrazin-2-yl)methanol]",15.8
12,"Cc1cnc(-c2cncc([C@@]34CC[C@@H](c5cc(-c6c(F)cccc6F)nnc53)C4(C)C)n2)o1 [Example 88, 2-(6-((5R,8S)-3-(2,6-difluorophenyl)-9,9-dimethyl-5,6,7,8-tetrahydro-5,8-methanocinnolin-8-yl)pyrazin-2-yl)-5-methyloxazole]",5.4
13,"C[C@H](O)CNC(=O)c1cncc([C@]23CC[C@H](c4cc(-c5c(F)cccc5F)nnc42)C3(C)C)n1 [Example 89, 6-((5S,8R)-3-(2,6-difluorophenyl)-9,9-dimethyl-5,6,7,8-tetrahydro-5,8-methanocinnolin-8-yl)-N-((S)-2-hydroxypropyl)pyrazine-2-carboxamide]",12.8
14,"CC1(C)[C@H]2CC[C@]1(c1cncc(C(=O)NCCC#N)n1)c1nnc(-c3c(F)cccc3F)cc12 [Example 90, N-(2-cyanoethyl)-6-((5R,8S)-3-(2,6-difluorophenyl)-9,9-dimethyl-5,6,7,8-tetrahydro-5,8-methanocinnolin-8-yl)pyrazine-2-carboxamide]",23
15,"CN(CCO)C(=O)c1cncc([C@@]23CC[C@@H](c4cc(-c5c(F)cccc5F)nnc42)C3(C)C)n1 [Example 91, 6-((5R,8S)-3-(2,6-difluorophenyl)-9,9-dimethyl-5,6,7,8-tetrahydro-5,8-methanocinnolin-8-yl)-N-(2-hydroxyethyl)-N-methylpyrazine-2-carboxamide]",40.8
16,"CC1(C)[C@H]2CC[C@]1(c1cncc(C(=O)NCC#N)n1)c1nnc(-c3c(F)cccc3F)cc12 [Example 92, N-(cyanomethyl)-6-((5R,8S)-3-(2,6-difluorophenyl)-9,9-dimethyl-5,6,7,8-tetrahydro-5,8-methanocinnolin-8-yl)pyrazine-2-carboxamide]",20.6
17,"CC1(C)[C@H]2CC[C@]1(c1cncc(C(=O)N[C@H]3C[C@@H](O)C3)n1)c1nnc(-c3c(F)cccc3F)cc12 [Example 93, 6-((5R,8S)-3-(2,6-difluorophenyl)-9,9-dimethyl-5,6,7,8-tetrahydro-5,8-methanocinnolin-8-yl)-N-((1s,3R)-3-hydroxycyclobutyl)pyrazine-2-carboxamide]",31.8
18,"CC1(C)[C@H]2CC[C@]1(c1cncc(C(=O)N[C@H]3C[C@H](O)C3)n1)c1nnc(-c3c(F)cccc3F)cc12 [Example 94, 6-((5R,8S)-3-(2,6-difluorophenyl)-9,9-dimethyl-5,6,7,8-tetrahydro-5,8-methanocinnolin-8-yl)-N-((1r,3S)-3-hydroxycyclobutyl)pyrazine-2-carboxamide]",21.5
